According to article PMC6488579 (2019):
Each block holds one compound with its values, some of them ahead of it.

What was measured:
[1] = tested on: HOC6-S-S-C6-DEX04 (DNA, aptamer) ACACGACGAGGGACGAGGAGTACTTGCCAACGATAACGTCGTTGGATCTGTCTGTGCCC; assay: electrochemical impedance, Rct change
[2] = tested on: DEX04 (DNA, aptamer) ATATCATATGCTCCAATTACACGACGAGGGACGAGGAGTACTTGCCAACGATAACGTCGTTGGATCTGTCTGTGCCCATATTACACTTGCGATCT; assay: fluorescence bead-binding, eluted DNA; details: 150 nM aptamer
[3] = tested on: DEX01 (DNA, aptamer) ATATCATATGCTCCAATTACACCCCACGTAGTGTCACAGCACGCTTATAGTAAGTGAAGTGACGGGTTGCTGATGTGATATTACACTTGCGATCT; assay: fluorescence bead-binding saturation, eluted DNA; details: immobilised compound (DXN Sepharose 6β beads); binding buffer; aptamer 50-400 nM
[4] = tested on: DEX10 (DNA, aptamer) ATATCATATGCTCCAATTGGACAGCTGGCCGCGAAGCGAGACACGTATAAGGTACTATACGGCTGGCATATGTATCTGATATTACACTTGCGATCT; assay: fluorescence bead-binding saturation, eluted DNA; details: immobilised compound (DXN Sepharose 6β beads); binding buffer; aptamer 50-400 nM
[5] = tested on: DEX04 (DNA, aptamer) ATATCATATGCTCCAATTACACGACGAGGGACGAGGAGTACTTGCCAACGATAACGTCGTTGGATCTGTCTGTGCCCATATTACACTTGCGATCT; assay: fluorescence bead-binding saturation, eluted DNA; details: immobilised compound (DXN Sepharose 6β beads); binding buffer; aptamer 50-400 nM
[6] = tested on: DEX05 (DNA, aptamer) ATATCATATGCTCCAATTACAGGCTTGGATTAGTGTATCCAACTAGTATCGTGTATACTAGGCCCTTGCTACCCTGTGATATTACACTTGCGATCT; assay: fluorescence bead-binding saturation, eluted DNA; details: immobilised compound (DXN Sepharose 6β beads); aptamer up to 400 nM; NB [sic]
[7] = tested on: DEX06 (DNA, aptamer) ATATCATATGCTCCAATTACACACGAAACACAAGCAGTGAGACTGCCTACGTCCGTAGTTGTGTTGAGTTTGCTCTCCATATTACACTTGCGATCT; assay: fluorescence bead-binding saturation, eluted DNA; details: immobilised compound (DXN Sepharose 6β beads); aptamer up to 400 nM; NB [sic]
[8] = tested on: DEX03 (DNA, aptamer) ATATCATATGCTCCAATTACGCGTAGGGATGTGTAAGGTCTGTACACCTCGGTTTACTCTATGCTTCGCATATTGTCGATATTACACTTGCGATCT; assay: fluorescence bead-binding saturation, eluted DNA; details: immobilised compound (DXN Sepharose 6β beads); binding buffer; aptamer 50-400 nM
[9] = highest tested 1 nM (below detection limit for DXN), measured in 10 mM PBS pH 7.4

binding [1, 9]: no
binding ([2]; immobilised compound (NET beads, 5 µL, 6–14 µmol/mL)): no
Compound: C#C[C@]1(O)CC[C@H]2[C@@H]3CCC4=CC(=O)CC[C@@H]4[C@H]3CC[C@@]21C

binding [1, 9]: no
binding ([2]; immobilised compound (P4 beads, 20 µL, 4.4 nmol/mL)): no
Compound: CC(=O)[C@H]1CC[C@H]2[C@@H]3CCC4=CC(=O)CC[C@]4(C)[C@H]3CC[C@]12C

KD [3]: 15.71 nM
KD [4]: 715 nM
KD [5]: 18.35 nM
binding ([1]; free DXN 50 and 100 nM, 10 mM PBS pH 7.4, 10 mM ferri/ferrocyanide): yes
binding [6]: no
binding [7]: no
KD [8]: 72.83 nM
Compound: C[C@@H]1C[C@H]2[C@@H]3CCC4=CC(=O)C=C[C@]4(C)[C@@]3(F)[C@@H](O)C[C@]2(C)[C@@]1(O)C(=O)CO

binding [1, 9]: no
binding ([2]; immobilised compound (E2 beads, 5 µL, 6–14 µmol/mL)): no
Compound: C[C@]12CC[C@@H]3c4ccc(O)cc4CC[C@H]3[C@@H]1CC[C@@H]2O
